Data from article PMC7796460, “Relation of Metal-Binding Property and Selective Toxicity of 8-Hydroxyquinoline Derived Mannich Bases Targeting Multidrug Resistant Cancer Cells” (Cancers, 2021).

Tests used:
MES-SA/Dx5 cells [1] = experiment: MTT viability assay, MES-SA/Dx5; type: cell-based, human
Method in brief: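 After overnight attachment (5000 cells/well), compounds were incubated 72 h before a 1 h MTT step at 0.083 mg/mL. DMSO-solubilized product was measured at 540 nm.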

KB-v1 cells = experiment: MTT viability assay, KB-v1; type: cell-based; conditions: Homo sapiens, KB-V1, 72 h, MTT 72 h
Text: (§1) MDCK II canine kidney cells, A431 epidermoid carcinoma cells, the human uterine sarcoma cell lines MES-SA and the doxorubicin selected MES-SA-Dx5 were obtained from ATCC (MDCK II: No. CRL-2936™, A431: No. CRL-1555™, MES-SA: No. CRL-1976™, MES-SA/Dx5: No. CRL-1977™). ABCB1 was expressed in A431 and MES-SA cells using lentiviral transduction. The human cervix carcinoma cell line KB-3-1 and the vinblastine selected KB-v1were kind gifts from Dr. Michael M. Gottesman, National Institutes of Health. The phenotype of the resistant cells was verified using cytotoxicity assays. MDCK-B1 and MDCK-MM were established by the Sleeping Beauty transposon-based gene delivery system. OVCAR-8 and NCI-ADRres cells (obtained from the Division of Cancer Treatment and Diagnosis (DCTD) Tumor Repository (National Cancer Institute, Frederick, MD, USA)) were cultivated in RPMI-1640 (Sigma Aldrich, Budapest, Hungary), and other cell lines were cultivated in Dulbecco’s Modified Eagle Medium (DMEM, Sigma Aldrich, Budapest, Hungary), supplemented with 10% fetal bovine serum, 5 mM glutamine, and 50 unit/mL penicillin and streptomycin (Life Technologies, Carlsbad, CA, USA). All cell lines were cultivated at 37 °C, 5% CO2.
(§2) MTT viability assays were performed as described earlier with minor modifications. Briefly, cells were seeded into 96-well tissue culture plates (Sarstedt, Newton, NC, USA/Orange, Braine-l’Alleud, Belgium) at a density of 5000 cells/well and allowed to attach overnight. Test compounds were added to achieve the required final concentration in a final volume of 100 µL per well. After an incubation period of 72 h, the supernatant was removed and fresh medium containing the MTT reagent (0.083 mg/mL) was added. Incubation with MTT at 37 °C was terminated after 1 h by removing the supernatant and lysing the cells with 100 µL DMSO per well. Viability of the cells was measured spectrophotometrically based on the absorbance values at 540 nm using either a Perkin Elmer Victor X3 or an EnSpire microplate reader. Data were background corrected by subtraction of the signal obtained from unstained cell lysates and normalized to untreated cells. Curves were fitted by Prism software (GraphPad Software Inc., San Diego, CA, USA) using the sigmoidal dose-response model (comparing variable and fixed slopes). […] Significance was calculated using unpaired t-tests; results are given as *: p ≤ 0.05, **: p ≤ 0.01, ***: p ≤ 0.001, ****: p ≤ 0.0001.

A431-B1 cells = experiment: MTT viability assay, A431-B1; type: cell-based; conditions: 72 h, MTT 72 h
Text: as §1, §2

MDCK cells = experiment: MTT viability assay, MDCK; type: cell-based, canine; conditions: Canis lupus familiaris, 72 h, MTT 72 h
Text: as §1, §2

MES-SA cells = experiment: ROS determination with DCFDA, MES-SA; type: cell-based, human; conditions: 2 h
Method in brief: (§3)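 Cells loaded with 10 µM DCFDA (3 × 10^6 cells/mL, 37 °C, 30 min), washed, then plated at 2 × 10^4 cells/well in PBS. After basal reading, compounds (6.25–50 µM) added and fluorescence followed every 10 min to 2 h, also with 5 mM NAC; values as fold change versus basal and untreated cells.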

MES-SA/Dx5 cells [2] = experiment: ROS determination with DCFDA, MES-SA/Dx5; type: cell-based, human; conditions: 2 h
Method in brief: as §3

[3] = presence of 1 µM Tariquidar (values in brackets)

IC50 (KB-v1 cells; absence of Tariquidar): 270 ± 120 nM | IC50 (KB-v1 cells; [3]): 2270 nM | IC50 (A431-B1 cells; absence of Tariquidar): 2570 ± 560 nM | IC50 (A431-B1 cells; [3]): 7950 nM
SMILES: Oc1c(CNCc2ccccc2F)cc(Cl)c2cccnc12 [Compound Q-4, 5-chloro-7-((2-fluorobenzylamino)methyl)quinolin-8-ol]
IC50 (MES-SA/Dx5 cells [1]; Homo sapiens, MES-SA/Dx5, Table S1, calculated as ligand equivalents, absence of TQ, read-out: IC50 Dx5): 200 ± 60 nM | SR MES-SA/Dx5 (MES-SA/Dx5 cells [1]; IC50 MES-SA vs. MES-SA/Dx5, absence of Tariquidar): 13.68 | SR MES-SA/Dx5 (MES-SA/Dx5 cells [1]; IC50 MES-SA vs. MES-SA/Dx5, presence of 1 µM Tariquidar (brackets)): 0.68 | Effect of co-administration of CuCl2 on toxicity (MES-SA/Dx5 cells [1]; MDR MES-SA/Dx5, increasing concentrations of CuCl2, MTT 72 h (Figure 2I-L)): not further sensitized | Selective toxicity in the presence of 50 µM copper(II) (MES-SA/Dx5 cells [1]; MES-SA vs. MES-SA/Dx5, 50 µM copper(II)): completely abrogated | MDR-selective toxicity with excess iron ions (MES-SA/Dx5 cells [1]; MES-SA vs. MES-SA/Dx5, co-administered FeCl3): significantly reduced | Effect of co-incubation with iron(III) on cytotoxicity (MES-SA/Dx5 cells [1]; MES-SA/Dx5, increasing concentrations of FeCl3, MTT 72 h (Figure 2A-D)): selectively protected MES-SA/Dx5 cells | SR MES-SA/Dx5 (Table 2) (MES-SA/Dx5 cells [1]; Table 2, value in brackets (Tariquidar as in Table 1)): 0.68 | SR MES-SA/Dx5 (Table 2) (MES-SA/Dx5 cells [1]; Table 2, value outside brackets): 13.68 | SR (MES-SA/Dx5 cells [1]; Table S1, IC50 Pgp negative divided by Pgp positive cells, absence of TQ): 13.68 | SR_TQ (MES-SA/Dx5 cells [1]; Table S1, presence of 1 µM TQ): 0.68 | IC50 (MDCK cells; absence of Tariquidar): 4550 ± 1530 nM | IC50 (MDCK cells; [3]): 5920 nM | Fold change in fluorescence (DCFDA) (MES-SA cells; 6.25 µM): 1.207± 0.20 | Fold change in fluorescence (DCFDA) (MES-SA cells; 6.25 µM, presence of 5 mM NAC (brackets)): 1.030± 0.16 | Fold change in fluorescence (DCFDA) (MES-SA cells; 12.5 µM): 1.190± 0.14 | Fold change in fluorescence (DCFDA) (MES-SA cells; 12.5 µM, presence of 5 mM NAC (brackets)): 1.033± 0.21 | Fold change in fluorescence (DCFDA) (MES-SA cells; 25 µM): 1.187± 0.29 | Fold change in fluorescence (DCFDA) (MES-SA cells; 25 µM, presence of 5 mM NAC (brackets)): 0.985± 0.12 | Fold change in fluorescence (DCFDA) (MES-SA cells; 50 µM): 1.151± 0.19 | Fold change in fluorescence (DCFDA) (MES-SA cells; 50 µM, presence of 5 mM NAC (brackets)): 1.040± 0.17 | Fold change in fluorescence (DCFDA) (MES-SA/Dx5 cells [2]; MES-SA/Dx5, 6.25 µM): 1.238± 0.28 | Fold change in fluorescence (DCFDA) (MES-SA/Dx5 cells [2]; MES-SA/Dx5, 6.25 µM, presence of 5 mM NAC (brackets)): 1.191± 0.07 | Fold change in fluorescence (DCFDA) (MES-SA/Dx5 cells [2]; MES-SA/Dx5, 12.5 µM): 1.396± 0.35 | Fold change in fluorescence (DCFDA) (MES-SA/Dx5 cells [2]; MES-SA/Dx5, 12.5 µM, presence of 5 mM NAC (brackets)): 1.337± 0.26 | Fold change in fluorescence (DCFDA) (MES-SA/Dx5 cells [2]; MES-SA/Dx5, 25 µM): 1.340± 0.26 | Fold change in fluorescence (DCFDA) (MES-SA/Dx5 cells [2]; MES-SA/Dx5, 25 µM, presence of 5 mM NAC (brackets)): 1.320± 0.31 | Fold change in fluorescence (DCFDA) (MES-SA/Dx5 cells [2]; MES-SA/Dx5, 50 µM): 1.286± 0.30 | Fold change in fluorescence (DCFDA) (MES-SA/Dx5 cells [2]; MES-SA/Dx5, 50 µM, presence of 5 mM NAC (brackets)): 1.283± 0.20
